Results taken from patent US8080252B2, “Compounds and methods of modulating angiogenesis” (The Cleveland Clinic Foundation, priority 2006, dated 2011).
Non-standard residues stand in square brackets, D forms with d. No end group written: not given here. pY = N[C@@H](Cc1ccc(OP(=O)(O)O)cc1)C(=O)O

Columns and labels:
[1] = system: β3 integrin; assay: β3 integrin tyrosine phosphorylation (Tyr-747 and 759) in HUVECs, Western blot; format: cell-based, Human; details: adherent endothelial cells plated on vitronectin
Method: αvβ3 integrin is expressed on proliferating endothelial cells during angiogenesis and vascular remodeling and the blockade of αvβ3 integrin suppressed angiogenesis in several in vivo models. Therefore, we assessed whether the blockade of αvβ3 affected tyrosine phosphorylation of β3 subunit. […] Cells were also treated with non-immune IgG as control. These cells were washed and further induced with VEGF for 5 min at 37° C. Cell lysates were analyzed for phosphorylation of β3 integrin (Tyr-747 and 759). […] Basal level of β3 integrin tyrosine phosphorylation remains unaffected irrespective of different blocking antibody treatment. To further examine consequences of αvβ3 integrin blocking antibodies, cell lysates were analyzed for tyrosine phosphorylation of VEGFR-2 (Tyr-1175).
Cytoplasmic domains of integrin β subunits are highly conserved and represents region of structural homology between the various groups. […] Cell lysates were analyzed for the phosphorylation of β3 integrin. […]
Cells were lysed in immunoprecipitation lysis buffer (1% Noniodet P-40, 150 mM NaCl, 50 mM Tris-HCL (pH 7.8), 2 mM EDTA, 10 mM NaF, 10 mM Na2P2O7, 2 mM Na3VO4 10 μg/mL leupeptin, 4 μg/mL pepstatin and 0.1 U/mL aprotinin). […] Bands were analyzed by densitomeric analysis using Kodak 1D software and fold changes were indicated.

[2] = system: HUVECs; assay: Cell adhesion assay of HUVECs on vitronectin (Example 5); format: cell-based, Human
Method: Cells were washed twice with sterile PBS and re-suspended in DMEM. The cell suspensions were added to ligand-coated wells and placed in humidified incubator for 45 min. Wells were gently washed three times with DMEM and photographs were taken. The numbers of attached and spread cells per field were counted.

[3] = system: HUVECs; assay: Cell migration assay of HUVECs on vitronectin, VEGF as agonist (Example 5); format: cell-based, Human; details: vitronectin as substrate
Method: To assess the role of Src-mediated β3 integrin tyrosine phosphorylation in αvβ3 integrin dependent EC migration, HUVECs transfected with various forms of Src were evaluated in migration assays using VEGF as an agonist and vitronectin as a substrate. […] To further evaluate the c-Src mediated β3 integrin cytoplasmic tyrosine motifs phosphorylation in αvβ3 integrin dependent endothelial cell migration, wild type and DiYF mouse lung microvascular endothelial cells were transfected with wild type, dominant negative and catalytically active form of c-Src and stimulated with VEGF (FIG. 23 B).
Transwell tissue culture inserts were coated with αvβ3 integrin ligand vitronectin for 24 h at 4° C. Endothelial cells were transfected with various forms of c-Src or treated with inhibitors and were trypsinized; then 1×10^5 cells were added into each well. Cells were allowed to migrate for 12 h and fixed with 70% methanol for 15 min and stained with Giemsa. The non-migrated cells adhered to the top surface were removed and three random 10× fields were photographed using an inverted phase contrast microscopy.

[4] = molecular target: T1, c-Src (Homo sapiens, UniProt P12931); assay: In vitro kinase assay, c-Src phosphorylation of β3 integrin cytoplasmic domain or peptides; format: biochemical; details: [γ-32P] ATP incorporation
T1 construct: c-Src was immunoprecipitated from VEGF-stimulated HUVEC; endogenous in cells; host or cells: HUVEC (immunoprecipitate)
Text: Principle mechanism by which integrins appear to mediate the transfer of information from extracellular environment to intracellular milieu is through phosphorylation of β-subunit at cytoplasmic tyrosine motifs. Ligand occupancy of αvβ3 is a prerequisite for the tyrosine phosphorylation events and implying an important role for outside-in integrin signaling in this process. To examine whether c-Src can directly mediate β3 integrin tyrosine phosphorylation, c-Src was immunoprecipitated from VEGF-stimulated HUVEC. Immunocomplex were incubated with a full-length purified β3 integrin cytoplasmic domain, and [γ-^32P] ATP incorporation into was monitored. […] Recombinant purified c-Src also phosphorylated the β3 integrin whereas no phosphorylation was observed without the substrate, indicating the specificity of the reaction (lane 1 and 5). […] To further investigate whether c-Src phosphorylates Tyr-747 or Tyr-759 of β3 integrin or both residues, kinase assay were performed using peptide derived from these two distinct sites of β3 integrin as substrates (FIG. 20 E). […] In the presence of Tyr-747/Tyr-759 β3 integrin cytoplasmic peptide, a dramatic increase in [γ-^32P] ATP incorporation was observed as compared to control peptides devoid of tyrosine motifs. Similar results were observed using purified recombinant c-Src protein. As anticipated, [γ-^32P] […]

[5] = system: angiogenesis in VEGF-A-containing Matrigel; assay: Matrigel plug assay, neovascularization by hemoglobin assay (Example 4); format: in vivo; details: 50 mM peptide in 500 μL Matrigel with VEGF (60 ng/mL) and heparin, subcutaneous, 7 days, C57/Bl6 mice
Method: Matrigel plug assays were performed in age- and sex-matched C57/Bl6 background mice. Each animal received an abdominal subcutaneous injection of 500 μL Matrigel mixed with VEGF (60 ng/mL), heparin (60 units/mL) and 50 mM of control ([…] G DTANNPL […]-COOH) (SEQ ID NO: 14) or beta-3 integrin cytoplasmic domain inhibitory peptide ([…] G DTANNPL Yp […]-COOH) (SEQ ID NO: 2). After 7 days, the animals were euthanized and dissected. Matrigel plugs were removed and digested using 5 mL Drabkin reagent and neovascularization was assessed using a hemoglobin assay as per the manufacturer's protocol (FIG. 16).

T1 sequence (P12931 whole entry, the tested form may be a part): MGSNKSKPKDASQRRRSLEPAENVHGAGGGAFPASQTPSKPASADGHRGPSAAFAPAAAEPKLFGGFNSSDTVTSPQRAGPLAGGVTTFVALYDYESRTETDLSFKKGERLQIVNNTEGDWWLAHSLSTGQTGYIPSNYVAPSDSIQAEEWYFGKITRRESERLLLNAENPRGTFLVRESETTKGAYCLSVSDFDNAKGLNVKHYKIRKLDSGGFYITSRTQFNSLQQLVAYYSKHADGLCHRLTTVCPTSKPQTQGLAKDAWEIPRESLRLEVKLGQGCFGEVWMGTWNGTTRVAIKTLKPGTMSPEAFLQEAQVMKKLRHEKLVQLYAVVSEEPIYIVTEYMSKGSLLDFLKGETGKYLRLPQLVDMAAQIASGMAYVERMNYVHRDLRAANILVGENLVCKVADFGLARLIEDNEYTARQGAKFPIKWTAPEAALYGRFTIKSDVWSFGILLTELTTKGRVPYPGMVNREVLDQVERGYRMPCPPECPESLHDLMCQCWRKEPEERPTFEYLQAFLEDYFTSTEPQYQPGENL

| Compound | effect on β3 integrin tyrosine phosphorylation [1] | effect on cell adhesion to vitronectin [2] | effect on EC migration triggered by VEGF [3] | effect on phosphorylation of β3 integrin cytoplasmic domain by immunoprecipitated c-Src [4] | hemoglobin concentration in Matrigel plugs, fold lower compared to control peptide [5] |
| --- | --- | --- | --- | --- | --- |
| CN(C)S(=O)(=O)c1ccc2c(c1)C(=Cc1cc3c([nH]1)CCCC3)C(=O)N2 [SU6656, 2-oxo-3(4,5,6,7-tetrahydro-1-H-indol-2-ylmethylene)-2,3-dihydro-1H-indole-5-sulfonic acid dimethylamide] | completely blocked | caused impairment of cell adhesion to vitronectin | reduced EC migration triggered by VEGF | blocked this process | – |
| YGRKKRRQRRR G DTANNPL Yp KEATSTFT-COOH (YGRKKRRQRRRGDTANNPL[pY]KEATSTFT-OH; N-terminus assumed; SMILES CC(C)C[C@H](NC(=O)[C@@H]1CCCN1C(=O)[C@H](CC(N)=O)NC(=O)[C@H](CC(N)=O)NC(=O)[C@H](C)NC(=O)[C@@H](NC(=O)[C@H](CC(=O)O)NC(=O)CNC(=O)[C@H](CCCNC(=N)N)NC(=O)[C@H](CCCNC(=N)N)NC(=O)[C@H](CCCNC(=N)N)NC(=O)[C@H](CCC(N)=O)NC(=O)[C@H](CCCNC(=N)N)NC(=O)[C@H](CCCNC(=N)N)NC(=O)[C@H](CCCCN)NC(=O)[C@H](CCCCN)NC(=O)[C@H](CCCNC(=N)N)NC(=O)CNC(=O)[C@@H](N)Cc1ccc(O)cc1)[C@@H](C)O)C(=O)N[C@@H](Cc1ccc(OP(=O)(O)O)cc1)C(=O)N[C@@H](CCCCN)C(=O)N[C@@H](CCC(=O)O)C(=O)N[C@@H](C)C(=O)N[C@H](C(=O)N[C@@H](CO)C(=O)N[C@H](C(=O)N[C@@H](Cc1ccccc1)C(=O)N[C@H](C(=O)O)[C@@H](C)O)[C@@H](C)O)[C@@H](C)O; listed as Homo sapiens) [SEQ ID NO: 2] | – | – | – | – | at least 3.5 fold |
